Laboratory results from PubChem BioAssay (NCI).
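Where inhibition never reached the appropriate level, the endpoint shown equals the highest concentration tested. Otherwise, values were interpolated linearly from a five-concentration, 48-hour dose response in 96-well plates. The concentration for 50% growth inhibition is given as GI50. The concentration for full growth arrest is given as TGI.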

Assays:
Assay in all cases: NCI anticancer screen, dose series, 48 h
[1] = test system: 786-0 renal
[2] = test system: A498 renal
[3] = test system: A549 NSCLC
[4] = test system: ACHN renal
[5] = test system: BT-549 breast
[6] = test system: CAKI-1 renal
[7] = test system: CCRF-CEM leukemia
[8] = test system: COLO 205 colon
[9] = test system: DU-145 prostate
[10] = test system: EKVX NSCLC
[11] = test system: HCT-116 colon
[12] = test system: HCT-15 colon
[13] = test system: HL-60(TB) leukemia
[14] = test system: HOP-62 NSCLC
[15] = test system: HOP-92 NSCLC
[16] = test system: HS 578T breast
[17] = test system: HT29 colon
[18] = test system: IGROV1 ovarian
[19] = test system: K-562 leukemia
[20] = test system: KM12 colon
[21] = test system: LOX IMVI melanoma
[22] = test system: M14 melanoma
[23] = test system: MALME-3M melanoma
[24] = test system: MCF7 breast
[25] = test system: MDA-MB-231 breast
[26] = test system: MDA-MB-435
[27] = test system: MOLT-4 leukemia
[28] = test system: NCI-H226 lung
[29] = test system: NCI-H23 lung
[30] = test system: NCI-H460 lung
[31] = test system: NCI-H522 lung
[32] = test system: NCI/ADR-RES ovarian
[33] = test system: OVCAR-3 ovarian
[34] = test system: OVCAR-4 ovarian
[35] = test system: OVCAR-5 ovarian
[36] = test system: OVCAR-8 ovarian
[37] = test system: PC-3 prostate
[38] = test system: RXF 393 renal
[39] = test system: SF-268 CNS
[40] = test system: SF-295 CNS
[41] = test system: SF-539 CNS
[42] = test system: SK-MEL-28 melanoma
[43] = test system: SK-MEL-5 melanoma
[44] = test system: SK-OV-3 ovarian
[45] = test system: SN12C renal
[46] = test system: SNB-19 CNS
[47] = test system: SW-620 colon
[48] = test system: T-47D breast
[49] = test system: TK-10 renal
[50] = test system: U251 CNS
[51] = test system: UACC-257 melanoma
[52] = test system: UACC-62 melanoma
[53] = test system: UO-31 renal

SMILES: COc1cc(/C=C2\CC3C4CCC5=CC(=O)CC[C@]5(C)C4CC[C@]3(C)C2=O)ccc1OCCCn1ccnc1 (stereo partly specified)
- GI50 [1]: 11.6 µM
- TGI [1]: 23.8 µM
- GI50 [2]: 11.6 µM
- TGI [2]: 23.9 µM
- GI50 [3]: 5.32 µM
- TGI [3]: 21.7 µM
- GI50 [4]: 10.2 µM
- TGI [4]: 21.8 µM
- GI50 [5]: 4.45 µM
- TGI [5]: 33.4 µM
- GI50 [6]: 8.97 µM
- TGI [6]: 26.9 µM
- GI50 [7]: 3.35 µM
- TGI [7]: 10 µM
- GI50 [8]: 4.52 µM
- TGI [8]: 22.7 µM
- GI50 [9]: 11.8 µM
- TGI [9]: 24.1 µM
- GI50 [10]: 17.6 µM
- TGI [10]: 45 µM
- GI50 [11]: 2.7 µM
- TGI [11]: 13.1 µM
- GI50 [12]: 4.03 µM
- TGI [12]: 16.2 µM
- GI50 [13]: 2.86 µM
- TGI [13]: 10.2 µM
- GI50 [14]: 11.8 µM
- TGI [14]: 25.2 µM
- GI50 [15]: 6.22 µM
- TGI [15]: 22.8 µM
- GI50 [16]: 8.45 µM
- TGI [16]: 29.8 µM
- GI50 [17]: 0.794 µM
- TGI [17]: 11.6 µM
- GI50 [18]: 9.13 µM
- TGI [18]: 29.5 µM
- GI50 [19]: 2.69 µM
- TGI [19]: 12.9 µM
- GI50 [20]: 3.75 µM
- TGI [20]: 20 µM
- GI50 [21]: 3.75 µM
- TGI [21]: 14.4 µM
- GI50 [22]: 5.87 µM
- TGI [22]: 23.7 µM
- GI50 [23]: 3.11 µM
- TGI [23]: 13.5 µM
- GI50 [24]: 4.02 µM
- TGI [24]: 19.9 µM
- GI50 [25]: 5.04 µM
- TGI [25]: 21 µM
- GI50 [26]: 5.04 µM
- TGI [26]: 25.6 µM
- GI50 [27]: 4.09 µM
- TGI [27]: 18.9 µM
- GI50 [28]: 11.2 µM
- TGI [28]: 27.5 µM
- GI50 [29]: 2.22 µM
- TGI [29]: 4.43 µM
- GI50 [30]: 4.68 µM
- TGI [30]: 24.5 µM
- GI50 [31]: 3.8 µM
- TGI [31]: 16.1 µM
- GI50 [32]: 4.51 µM
- TGI [32]: 18.5 µM
- GI50 [33]: 5.17 µM
- TGI [33]: 19.4 µM
- GI50 [34]: 12.4 µM
- TGI [34]: > 100 µM
- GI50 [35]: 18.6 µM
- TGI [35]: 37.9 µM
- GI50 [36]: 5.93 µM
- TGI [36]: 22.1 µM
- GI50 [37]: 4.1 µM
- TGI [37]: 20.2 µM
- GI50 [38]: 0.0969 µM
- TGI [38]: 6.94 µM
- GI50 [39]: 13.6 µM
- TGI [39]: 34.4 µM
- GI50 [40]: 2.47 µM
- TGI [40]: 7.41 µM
- GI50 [41]: 7.21 µM
- TGI [41]: 21.7 µM
- GI50 [42]: 6.55 µM
- TGI [42]: 25.9 µM
- GI50 [43]: 2.07 µM
- TGI [43]: 7.1 µM
- GI50 [44]: 15.7 µM
- TGI [44]: 30.2 µM
- GI50 [45]: 1.76 µM
- TGI [45]: 8.5 µM
- GI50 [46]: 21.6 µM
- TGI [46]: > 100 µM
- GI50 [47]: 8.23 µM
- TGI [47]: 23.1 µM
- GI50 [48]: 5.23 µM
- TGI [48]: 19 µM
- GI50 [49]: 15.1 µM
- TGI [49]: 31.2 µM
- GI50 [50]: 9.09 µM
- TGI [50]: 21.2 µM
- GI50 [51]: 2.1 µM
- TGI [51]: 7.47 µM
- GI50 [52]: 5.18 µM
- TGI [52]: 24.9 µM
- GI50 [53]: 4.36 µM
- TGI [53]: 16.2 µM
